Reference: ChEMBL document CHEMBL3352482, “Discovery of potent N-(isoxazol-5-yl)amides as HSP90 inhibitors” (Eur J Med Chem, 2014)

Columns and labels:
[1] = Antitumor activity against human U87MG cells xenografted in mouse assessed as tumor growth inhibition at 25 mg/kg, iv dosed 3 times per week for 17 consecutive days relative to control; format: functional, U-87MG ATCC
[2] = Antitumor activity against human U87MG cells xenografted in mouse assessed as tumor growth inhibition at 50 mg/kg, iv dosed 3 times per week for 17 consecutive days relative to control; format: functional, U-87MG ATCC
[3] = tested on: Mus musculus; assay: Toxicity in human U87MG cells xenografted mouse assessed as weight loss at 25 to 50 mg/kg, iv dosed 3 times per week for 17 consecutive days relative to control; format: organism-based, U-87MG ATCC; parameters: dose 25-50 mg/kg, route intravenous; details: in vivo
[4] = tested on: A549; assay: Growth inhibition of human A549 cells after 72 hrs by SRB assay; format: functional; details: A549, 72 h
[5] = Intrinsic clearance in rat liver microsomes assessed per mg protein; format: ADME; details: read-out: CLH
[6] = Intrinsic clearance in human liver microsomes assessed per mg protein; format: ADME; details: read-out: CLH
[7] = biological target: CYP3A4 (Homo sapiens, UniProt P08684); assay: Inhibition of CYP3A4 in human liver microsomes at 10 uM after 20 mins; details: human liver microsomes
[8] = biological target: CYP2D6 (Homo sapiens, UniProt P10635); assay: Inhibition of CYP2D6 in human liver microsomes at 10 uM after 20 mins
[9] = biological target: CYP2C9 (Homo sapiens, UniProt P11712); assay: Inhibition of CYP2C9 in human liver microsomes at 10 uM after 20 mins
[10] = biological target: T1, CYP1A2 (Homo sapiens, UniProt P05177); assay: Inhibition of CYP1A2 in human liver microsomes at 10 uM after 20 mins
T1 sequence (P05177 whole entry): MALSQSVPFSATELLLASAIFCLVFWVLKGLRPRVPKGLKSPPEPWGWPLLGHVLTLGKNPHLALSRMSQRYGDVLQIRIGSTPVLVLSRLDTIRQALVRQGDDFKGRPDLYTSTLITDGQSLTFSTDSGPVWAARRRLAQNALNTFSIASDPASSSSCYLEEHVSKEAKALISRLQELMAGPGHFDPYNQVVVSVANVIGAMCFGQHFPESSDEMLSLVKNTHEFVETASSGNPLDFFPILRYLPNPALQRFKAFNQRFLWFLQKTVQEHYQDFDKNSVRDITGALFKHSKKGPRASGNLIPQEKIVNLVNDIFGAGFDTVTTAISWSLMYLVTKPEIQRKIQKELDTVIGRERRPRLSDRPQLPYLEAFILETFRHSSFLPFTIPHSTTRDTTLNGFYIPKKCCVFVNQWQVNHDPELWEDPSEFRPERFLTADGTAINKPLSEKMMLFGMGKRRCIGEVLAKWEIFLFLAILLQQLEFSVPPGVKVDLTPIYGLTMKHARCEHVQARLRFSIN

Sequence of CYP2D6 (P10635 whole entry): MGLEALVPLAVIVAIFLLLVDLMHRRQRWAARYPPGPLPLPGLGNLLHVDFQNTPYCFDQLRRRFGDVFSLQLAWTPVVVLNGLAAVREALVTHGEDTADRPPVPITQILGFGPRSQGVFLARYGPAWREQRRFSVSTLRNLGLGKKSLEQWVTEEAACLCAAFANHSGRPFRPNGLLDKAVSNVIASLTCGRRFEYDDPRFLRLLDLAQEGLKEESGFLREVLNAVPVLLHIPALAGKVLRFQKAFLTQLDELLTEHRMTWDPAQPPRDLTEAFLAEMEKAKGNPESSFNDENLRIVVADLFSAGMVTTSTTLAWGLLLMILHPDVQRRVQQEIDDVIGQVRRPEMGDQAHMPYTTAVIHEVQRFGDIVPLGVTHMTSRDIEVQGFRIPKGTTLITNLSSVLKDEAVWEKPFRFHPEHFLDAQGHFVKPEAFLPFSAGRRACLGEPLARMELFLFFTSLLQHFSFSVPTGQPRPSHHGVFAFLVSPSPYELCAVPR
Sequence of CYP2C9 (P11712 whole entry): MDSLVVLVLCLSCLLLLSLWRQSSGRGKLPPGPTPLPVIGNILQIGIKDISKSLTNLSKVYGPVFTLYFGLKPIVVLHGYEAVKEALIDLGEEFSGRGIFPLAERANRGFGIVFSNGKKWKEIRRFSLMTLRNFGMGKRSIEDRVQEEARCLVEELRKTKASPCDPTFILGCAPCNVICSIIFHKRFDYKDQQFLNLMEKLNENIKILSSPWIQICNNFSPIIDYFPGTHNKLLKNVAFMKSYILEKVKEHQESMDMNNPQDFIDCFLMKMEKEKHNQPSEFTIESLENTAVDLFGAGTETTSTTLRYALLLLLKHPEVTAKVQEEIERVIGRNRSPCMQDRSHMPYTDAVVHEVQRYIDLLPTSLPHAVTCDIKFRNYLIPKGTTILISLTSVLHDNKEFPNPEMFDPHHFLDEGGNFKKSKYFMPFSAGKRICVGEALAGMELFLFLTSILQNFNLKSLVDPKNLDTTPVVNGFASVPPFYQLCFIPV
Sequence of CYP3A4 (P08684 whole entry): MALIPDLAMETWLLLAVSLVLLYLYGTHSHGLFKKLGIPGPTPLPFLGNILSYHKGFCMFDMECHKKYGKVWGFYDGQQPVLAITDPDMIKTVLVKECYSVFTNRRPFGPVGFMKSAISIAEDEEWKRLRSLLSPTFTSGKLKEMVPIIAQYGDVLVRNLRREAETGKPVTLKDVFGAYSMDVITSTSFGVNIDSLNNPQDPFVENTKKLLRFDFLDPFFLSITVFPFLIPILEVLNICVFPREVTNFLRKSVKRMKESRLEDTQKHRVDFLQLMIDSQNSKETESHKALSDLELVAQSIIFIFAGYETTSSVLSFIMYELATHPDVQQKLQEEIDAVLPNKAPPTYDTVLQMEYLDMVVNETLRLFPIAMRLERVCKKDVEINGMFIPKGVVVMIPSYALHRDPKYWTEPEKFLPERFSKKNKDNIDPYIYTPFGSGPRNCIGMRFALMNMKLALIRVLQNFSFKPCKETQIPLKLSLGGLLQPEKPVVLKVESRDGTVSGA

SMILES	T/C [1] [%]	T/C [2] [%]	Activity [3]	GI50 [4] [nM]	microsomal CLint [5] [µL/min/mg]	microsomal CLint [6] [µL/min/mg]	inhibition at 20 min, 10 µM [7] [%]	inhibition at 20 min, 10 µM [8] [%]	inhibition at 20 min, 10 µM [9] [%]	inhibition at 20 min, 10 µM [10] [%]
CC(C)c1cc(-c2noc(NC(=O)C3CC3)c2-c2ccc(CN3CCC(N4CCOCC4)CC3)cc2)c(O)cc1O.Cl	48.28	18.35	Non-toxic	–	–	–	–	–	–	–
CCNC(=O)c1noc(-c2cc(C(C)C)c(O)cc2O)c1-c1ccc(CN2CCOCC2)cc1 [LUMINESPIB]	–	34.06	–	26	180	92	12	30	46	23
